Test results as given in PMC8170132, “Kinetics of Abacavir-Induced Remodelling of the Major Histocompatibility Complex Class I Peptide Repertoire” (Frontiers in Immunology, 2021).

What was measured:
[1] = target: T1, HLA-B*57:01fos (Homo sapiens, UniProt P01889, D201E/D98Y/E176V/E187L/E204Q/E69M/E70A/G107R/I90N/K202T/L105A/L119I/N104I/N87E/Q89R/Q94S/R106L/R155S/R180L/R86G/S101N/S121V/S35A/S48A/T118I/V36M/Y140S/Y91M); experiment: Fluorescence polarisation dissociation rate measurements; type: binding
T1 construct: Fos leucine zipper (C); made in house
Method: (§1) Peptide loaded HLA-B*57:01fos complexes were obtained as described ([50]) by refolding solubilised inclusion bodies of HLA-B*57:01fos heavy chains with human β 2m and UV-labile HLA-B57-conditional peptide ligand.
(§2) Fluorescence polarisation measurements were taken using a SpectraMax i3x Multi-Mode Microplate Reader (Molecular Devices) with rhodamine detection cartridge. All experiments were conducted at 25°C and used PBS supplemented with 0.5 mg/ml bovine-gamma-globulin (Sigma), and a 20 fold molar excess of human β 2m (Fitzgerald) in a volume of 60 µl. Binding of TAMRA-labelled peptides is reported in millipolarisation units (mP) and is obtained from the equation mP = 1,000 × (S – G × P)/(S + G × P), where S and P are background subtracted fluorescence count rates (S = polarisation emission filter is parallel to the excitation filter; P = polarisation emission filter is perpendicular to the excitation filter) and G (grating) is an instrument and assay dependent factor.
HLA-B*57:01fos molecules were UV exposed and then allowed to bind fluorescent peptides overnight at room temperature. Florescence polarisation measurements were taken after the addition of excess non-labelled competitor peptide (otherwise identical to the labelled peptide) in the absence or presence of 60 µM abacavir or conjugated tapasin-jun-ERp57 C60A proteins. […] Most experiments used 0.55 µM HLA-B*57:01fos molecules, but some experiments involved different preparations of HLA-B*57:01fos which required higher concentrations of HLA-B*57:01fos, up to a maximum of 1.38 µM HLA-B*57:01fos, to achieve equivalent polarisation levels.
Supplementary Table 2. Dissociation rates of TAMRA-labelled peptides from HLA-B*57:01fos molecules. The rates at which the indicated peptides dissociated from HLA-B*57:01fos molecules in the presence of excess unlabelled competing peptide (“Comp”), abacavir and tapasin (data shown in figure 7) was measured by Graphpad Prism v9.1.0. The dissociation rates were calculated by performing non-linear regression, using the one-phase decay method, with plateaus constrained to be equal to 50 mP (apart from being unconstrained for RVD peptide). The number of experimental replicates, and the standard deviation in the measured dissociation rates across the replicates is also presented.

[2] = target: T1, HLA-B*57:01fos; experiment: Fluorescence polarisation association rate measurements; type: binding; conditions: 25°C; for Effect of abacavir on binding of fluorescent peptide to HLA-B*57:01fos: 60 µM abacavir; for Effect of tapasin on binding of fluorescent peptide to HLA-B*57:01fos: tapasin-jun or tapasin-jun ERp57 C60A conjugate
Method: as §1, §2
Peptide-receptive HLA-B*57:01fos were obtained by exposing HLA-B*57:01fos complexes loaded with UV labile conditional peptide ligand to ~360 nm light for 20 min at 4°C (“UV exposed” hereafter). The binding of fluorescent peptides to UV exposed HLA-B*57:01fos was monitored in the absence or presence of excess (60 µM) abacavir or tapasin-jun or tapasin-jun ERp57 C60A conjugate. […] Most experiments used 0.55 µM HLA-B*57:01fos molecules, but a minority of experiments involved different preparations of HLA-B*57:01fos which required higher concentrations of HLA-B*57:01fos, up to a maximum of 3.18 µM HLA-B*57:01fos, to achieve equivalent polarisation levels.

[3] = target: T2, HLA-B*57:01 (Homo sapiens, UniProt P01889, D201E/D98Y/E176V/E187L/E204Q/E69M/E70A/G107R/I90N/K202T/L105A/L119I/N104I/N87E/Q89R/Q94S/R106L/R155S/R180L/R86G/S101N/S121V/S35A/S48A/T118I/V36M/Y140S/Y91M); experiment: LC-MRM-MS quantitation of HLA ligands and co-purified abacavir from abacavir treated C1R.B*57:01 cells; type: cell-based; conditions: for Category of abacavir impact on peptide abundance in the immunopeptidome: C1R.B*57:01, 35 µM abacavir 0-16 h or constant, linear regression of normalised abundance, three replicates; for Abacavir dependence: LC-MRM-MS detection, classification of the peptide based on abacavir dependency; for Linear regression slope: linear regression of LC-MRM-MS peptide abundance over abacavir treatment time
[4] = target: T2, HLA-B*57:01; design: method as in Illing et al., Nature 2012; conditions: ref Illing et al., Nature 2012, cited from earlier work; for HLA-B*57:01 previous observation by LC-MS/MS, Abacavir treated: abacavir treated cells; for HLA-B*57:01 previous observation by LC-MS/MS, Untreated: untreated cells

Substance	Abacavir dependence [3]	Linear regression slope [3]	HLA-B*57:01 previous observation by LC-MS/MS, Abacavir treated [4]	HLA-B*57:01 previous observation by LC-MS/MS, Untreated [4]	further results
KTFK*DVGNLL					Effect of abacavir on dissociation of the peptide from HLA-B*57:01fos ([1]; 60 µM abacavir with competing peptide): pronounced decrease in the dissociation; Half life (hours) of dissociation from HLA-B*57:01fos, Comp+Abacavir ([1]; as Comp, plus 60 µM abacavir, fluorescence polarisation, 25°C, one-phase decay, plateau 50 mP (unconstrained for RVD), 3-4 replicates): 814.20 h; Half life (hours) of dissociation from HLA-B*57:01fos, Comp+Tapasin+Abacavir ([1]; as Comp, plus tapasin-jun-ERp57 C60A and 60 µM abacavir, fluorescence polarisation, 25°C, one-phase decay, plateau 50 mP (unconstrained for RVD), 3-4 replicates): 62.89 h; Half life (hours) of dissociation from HLA-B*57:01fos, Comp ([1]; fluorescence polarisation, 25°C, PBS + 0.5 mg/ml bovine-gamma-globulin, 20 fold excess human β2m, excess unlabelled competing peptide only, one-phase decay, plateau 50 mP (unconstrained for RVD), 3-4 replicates): 402.30 h; Tapasin dependent enhancement of dissociation ([1]; tapasin-jun-ERp57 C60A with competing peptide): significant; Effect of combined abacavir and tapasin on binding of fluorescent peptide to HLA-B*57:01fos ([2]; 60 µM abacavir + tapasin-jun, fluorescence polarisation): occurred faster than in the presence of tapasin or abacavir alone; Effect of abacavir on binding of fluorescent peptide to HLA-B*57:01fos ([2]; fluorescence polarisation): binding strongly enhanced; Intrinsic binding of fluorescent peptide to UV exposed HLA-B*57:01fos ([2]; peptide alone, fluorescence polarisation (mP)): limited intrinsic ability to bind; Effect of tapasin on binding of fluorescent peptide to HLA-B*57:01fos ([2]; fluorescence polarisation): binding strongly enhanced
LTTK*LTNTNI					Effect of tapasin on binding of fluorescent peptide to HLA-B*57:01fos ([2]; fluorescence polarisation): did not affect the binding
VTKKTYEIW [non-labelled canonical HLA-B*57:01 ligand]	Minimal	0.0161	+ (+ (< 5% FDR))	+ (+ (< 5% FDR))	Category of abacavir impact on peptide abundance in the immunopeptidome [3]: Minimal; Effect of abacavir on binding of fluorescent peptide to HLA-B*57:01fos ([2]; fluorescence polarisation): enhanced the binding
STLHLVLRL	Dependent	0.0280	+ (+ (< 5% FDR))	+ (+ (< 5% FDR))	
KSIARVLTV	Dependent	0.0347	# (# (> 5% FDR))		
RVAQLEQVYI	Dependent	0.0208	+ (+ (< 5% FDR))		
LSKPNPPSL [HLA-B*57:01 ligand]	Minimal	-0.0172	+ (+ (< 5% FDR))	+ (+ (< 5% FDR))	Category of abacavir impact on peptide abundance in the immunopeptidome [3]: Minimal
RTLLEDGTFKV	Dependent	0.0443	+ (+ (< 5% FDR))		
IYDKFIAQL		-0.0106	+ (+ (< 5% FDR))	+ (+ (< 5% FDR))	
FVKKLEHSW	Minimal	0.0023	+ (+ (< 5% FDR))	+ (+ (< 5% FDR))	
GSFGKVFLV	Dependent	0.0515	+ (+ (< 5% FDR))		
KSIFVFTHV	Dependent	0.0498	+ (+ (< 5% FDR))		
ITAGAHRLW	Minimal	0.0136	+ (+ (< 5% FDR))	+ (+ (< 5% FDR))	
HSTDRVVLI	Dependent	0.0350	# (# (> 5% FDR))		
TFDDIVHSF		0.0142	+ (+ (< 5% FDR))	+ (+ (< 5% FDR))	
HSMSDPGVSY	Minimal	0.0044	+ (+ (< 5% FDR))	+ (+ (< 5% FDR))	
ASAGNLKPVW	Minimal	0.0136	+ (+ (< 5% FDR))	+ (+ (< 5% FDR))	
ASAIIIQRW	Minimal	0.0134	+ (+ (< 5% FDR))	+ (+ (< 5% FDR))	
LTSELITHI [HLA-B*57:01 ligand derived from MX1]	Dependent	0.0325	+ (+ (< 5% FDR))		Category of abacavir impact on peptide abundance in the immunopeptidome [3]: abacavir dependent (abacavir dependent (slope > 0.02, abundance = 0 at t = 0 in at least two of three replicates))
ILDPHVVLL		0.0062	+ (+ (< 5% FDR))	+ (+ (< 5% FDR))	
TTWKPLNPNSW	Minimal	0.0009	+ (+ (< 5% FDR))	+ (+ (< 5% FDR))	
KVVDVVRNL [HLA-B*57:01 ligand derived from MX1]	Inhibited	-0.0432	# (# (> 5% FDR))	+ (+ (< 5% FDR))	Category of abacavir impact on peptide abundance in the immunopeptidome [3]: abacavir inhibited (abacavir inhibited (slope < −0.02))
FSHRIYVAY	Minimal	0.0098	+ (+ (< 5% FDR))	+ (+ (< 5% FDR))	
ITTKAISRW [canonical peptide ligand of HLA-B*57:01]					Effect of abacavir on binding of fluorescent peptide to HLA-B*57:01fos ([2]; fluorescence polarisation): enhanced the binding
SAAYLPRMW	Minimal	-0.0194	+ (+ (< 5% FDR))	+ (+ (< 5% FDR))	
